{"source": "patent US9708608B2", "about": "“Methods for producing a population of pancreatic beta-cells” (priority 2012, dated 2017)", "key": {"[1]": {"system": "WT mice", "assay": "Streptozotocin-mediated diabetes in WT mice treated with GABA", "type": "in vivo, mouse", "description": "(§1) FIG. 4: The β-like cell mass can be regenerated following streptozotocin treatment in GABA-treated mice, the neo-generated insulin^+ cells being functional. […] Such a recovery is associated with a clear regeneration of their β-cell mass monitored 5, 10, 25 and 45 days post-streptozotocin administration by immunochemistry. 85 days post-streptozotocin injection, GABA- and STZ-treated WT and non-treated controls were subjected to a glucose tolerance test (GTT) (B).\nInduction of streptozotocin-mediated diabetes: To induce hyperglycaemia, STZ (Sigma) was dissolved in 0.1M sodium citrate buffer (pH 4.5), and a single dose was administered intraperitoneally (100 mg/kg) within 10 min of dissolution. Diabetes progression was assessed by the monitoring of blood glucose levels of the mice.\nA functional β-cell mass can be regenerated following chemically-induced diabetes in GABA-treated animals: To determine whether neo-formed insulin^+ cells could functionally replace endogenous β-cells, we injected WT animals with a high dose of streptozotocin to obliterate the endogenous β-cell mass."}, "[2]": {"system": "glucagon-expressing cells", "assay": "β-galactosidase lineage tracing in Glu-Cre::Rosa26-lox-β-gal mice treated with streptozotocin and GABA", "type": "in vivo, mouse", "settings": "isolated 40 days post-streptozotocin injection, daily GABA", "procedure": "β-galactosidase-based lineage-tracing experiments: Pancreatic tissues were isolated and fixed for 30 min at 4° C. in a solution containing 1% formaldehyde, 0.2% glutaraldehyde, 0.02% NP40. The tissues were dehydrated in 25% sucrose overnight at 4° C. Prior to sectioning, tissues were embedded in freezing medium. For β-galactosidase activity assessment, the tissues were washed in PBS and then incubated overnight in staining solution (500 mM K3Fe(CN)6, 250 mM K4Fe(CN)6, 0.5M MgCl2, 40 mg/ml X-gal in DMF).\nSeveral examples, from unrelated islets, of cells co-expressing insulin with glucagon were noted. […] To validate this hypothesis, we used Glu-Cre::Rosa26-lox-β-gal mice. […] It is important to note that such double-positive cells (in lesser proportion) are also observed in GABA-treated Glu-Cre::Rosa26-lox-β-gal animals not subjected to streptozotocin administration."}, "[3]": {"system": "Arx mRNA in α-TC1-6 cells", "assay": "Relative Arx mRNA expression in α-TC1-6 cells treated with GABA", "type": "cell-based", "settings": "α-TC1-6 cell line, increasing GABA concentrations, different periods of time, versus non-treated cells", "procedure": "Relative Arx mRNA expression was measured in the different conditions.\nRNA Analysis: RNA was isolated (RNEASY® (RNA isolation kit), Qiagen) and cDNA synthesis ([…]® (cDNA synthesis kit) choice system, Invitrogen) was performed according to the manufacturer's instructions. Quantitative RT-PCR was carried out using validated primers (Qiagen) and the […]® SYBR Green RT-PCR Kit (Qiagen) following manufacturer's instructions. PCR reactions and detection were performed on a […]® ep realplex cycler using GAPDH and HPRT1 as internal controls for normalization purposes."}, "[4]": {"system": "WT mice", "assay": "Glucose tolerance test in GABA- and STZ-treated WT mice", "type": "in vivo, mouse", "settings": "surviving GABA-treated mice, 85 days post-streptozotocin, versus controls not treated with GABA or streptozotocin", "description": "as §1"}, "[5]": {"system": "insulin+ cells", "assay": "Endocrine cell marker expression of insulin+ cells in GABA-treated pancreata (immunochemistry)", "type": "in vivo, mouse", "settings": "GABA-treated islets versus non-treated controls; Pdx1, Nkx6.1, NeuroD1, Glut 2, PC1/3, Pax6", "procedure": "(§2) Immunohistochemistry: Tissues were fixed in 4% PFA for 30 min at 4° C., embedded in paraffin and 8 μm sections applied to slides. These sections were assayed as described previously [Collombat et al., 2003]. The primary antibodies used were the following: guinea pig polyclonal anti-insulin (1/500-Linco), anti-glucagon (1/500-Milipore), mouse monoclonal anti-glucagon (1/500-Sigma), anti-BrdU (1/40-Roche), anti-E-cadherin (1/200-BD Transduction Lab), rat anti-somatostatin (1/250-Millipore), rabbit anti-Glut2 (1/5000), anti-PC1/3 (1/500-Milipore), anti-Nkx6.1 (1/3000-Novonordisk), anti-Pdx1 (1/1000), anti-NeuroD1 (1/200-Milipore), anti-Ngn3 (1/500-Abgent), anti-β-galactosidase (1/10000-Milipore), chicken anti vimentin (1/5000-Milipore), goat anti-osteopontin (1/200-R&D Systems). The secondary antibodies (1/1000-Molecular Probes) used were: 594- and 488-alexa anti-mouse; 594- and 488-alexa anti-rabbit; 594- and 488-alexa anti-guinea pig; 488-alexa anti-rat; 594- and 488-alexa anti-goat; 594- and 488-alexa anti-chicken. Pictures were processed using ZEISS Axioimager Z1 and LEICA DM 6000 B. For quantification purpose, stained cells were counted manually on every tenth section.\nTo ascertain the identity of the insulin^+ cells in GABA-treated pancreata, we assayed the expression of several endocrine cell marker genes by immunochemistry compared to non-treated controls. […]"}, "[6]": {"system": "Ngn3", "assay": "Ngn3 immunohistochemistry in GABA-treated pancreata", "type": "in vivo, mouse", "settings": "no Ngn3 expression in control animals", "procedure": "as §2, with “section. […]” for “section.”"}, "[7]": {"assay": "Life expectancy, basal glycemia and general health of GABA-treated WT mice"}, "[8]": {"system": "NOD mice", "settings": "NOD mice (Soltani et al., 2011; Tian et al., 2011); cited from earlier work"}, "[9]": {"system": "pancreatic islets of WT mice", "assay": "Quantification of islets and hormone-expressing cells in GABA-treated WT mice (immunohistochemistry, pixel counting)", "type": "in vivo, mouse", "settings": "versus aged-matched controls; for Glucagon+ cell count / Somatostatin+ cell count / Insulin+ cell count: pixel counting; for Insulin+ cell count / Islet count / Islet size: mean ± SEM; for Islet count / Islet size: treatment age 2.6 m", "procedure": "as §2\nCell counts: Quantitative analyses were performed by the counting of colored pixels on (immuno-) stained sections of pancreas using the Photoshop software. Specifically, every 10th section was processed using the same settings for all animals and genotypes."}, "[10]": {"system": "pancreatic cells of WT mice", "assay": "BrdU cell proliferation in GABA-treated WT mice", "type": "in vivo, mouse", "description": "Thus, to gain further insight into the mechanisms underlying these processes, we administered the thymidine analogue 5-bromo-2′-deoxyuridine (BrdU) to detect actively replicating cells. […] In addition, glucagon^+ and somatostatin^+ cells were not uniformly distributed within the islet mantle but rather found clustered at a pole of the islet, adjacent to neighboring ducts, unlike in controls where the distribution of the non-β-cells were found scattered in the mantle of the islets."}, "[11]": {"system": "mice", "settings": "streptozotocin-induced diabetes in mice (Soltani et al., 2011; Gomez et al., 2007); cited from earlier work"}}}
{"smiles": "NCCCC(=O)O", "note": "[GABA, gamma-amino butyric acid]", "values": [{"measurement": "Regeneration of insulin+ cells after β-cell loss", "setting": "[1]; GABA-treated WT animals after streptozotocin, immunohistochemistry at different time points", "value": "progressively regenerated"}, {"measurement": "Glycemia course after streptozotocin", "setting": "[1]; WT mice, high dose STZ, GABA started at approximately 300 mg/dl, water controls died from extreme hyperglycemia", "value": "steady recovery"}, {"measurement": "Sensitivity to another round of streptozotocin", "setting": "[1]; surviving GABA-treated mice, data not shown", "value": "not sensitive to STZ"}, {"measurement": "Insulin and β-galactosidase co-labelling (conversion of glucagon-expressing cells)", "setting": "[2]", "value": "a majority of cells positive for insulin and β-galactosidase"}, {"measurement": "Arx mRNA expression", "setting": "[3]", "value": "decrease in Arx mRNA expression"}, {"measurement": "Response to glucose challenge", "setting": "[4]", "value": "improved response with a lower raise in glycemia and a faster return to euglycemia"}, {"measurement": "Expression of β-cell markers in insulin-expressing cells", "setting": "[5]", "value": "uniformly expressed the bona fide β-cell markers"}, {"measurement": "Ngn3 expression", "setting": "[6]", "value": "reactivation of Ngn3 in the ductal environment"}, {"measurement": "Viability, health and fertility of treated animals", "setting": "[7]; GABA-treated WT mice", "value": "viable, healthy and fertile"}, {"measurement": "Life expectancy", "setting": "[7]; WT mice, GABA treatment duration 1 month, treatment age 2.6 m", "value": "normal"}, {"measurement": "Life expectancy", "setting": "[7]; WT mice, GABA treatment duration 2 months, treatment age 2.6 m", "value": "normal"}, {"measurement": "Life expectancy", "setting": "[7]; WT mice, GABA treatment duration 3 months, treatment age 2.6 m", "value": "normal"}, {"measurement": "Basal glycemia", "setting": "[7]; WT mice, GABA treatment duration 3 months, treatment age 2.6 m, monitored weekly", "value": 142}, {"measurement": "Diabetes reversal", "setting": "[8]", "value": "reverse diabetes"}, {"measurement": "Glucagon+ cell count", "setting": "[9]; GABA 1 month", "value": "x 0.97"}, {"measurement": "Somatostatin+ cell count", "setting": "[9]; GABA 1 month", "value": "x 1.43"}, {"measurement": "Insulin+ cell count", "setting": "[9]; GABA 1 month", "value": "x 1.04 ± 0.15"}, {"measurement": "Islet count", "setting": "[9]; GABA 1 month", "value": "x 2.19 ± 0.04"}, {"measurement": "Islet size", "setting": "[9]; GABA 1 month", "value": "x 1.04 ± 0.15"}, {"measurement": "Glucagon+ cell count", "setting": "[9]; GABA 2 months", "value": "x 1.91"}, {"measurement": "Somatostatin+ cell count", "setting": "[9]; GABA 2 months", "value": "x 2.39"}, {"measurement": "Insulin+ cell count", "setting": "[9]; GABA 2 months", "value": "x 2.15 ± 0.22"}, {"measurement": "Islet count", "setting": "[9]; GABA 2 months", "value": "x 1.86 ± 0.05"}, {"measurement": "Islet size", "setting": "[9]; GABA 2 months", "value": "x 2.15 ± 0.22"}, {"measurement": "Glucagon+ cell count", "setting": "[9]; GABA 3 months", "value": "x 3.02"}, {"measurement": "Somatostatin+ cell count", "setting": "[9]; GABA 3 months", "value": "x 2.84"}, {"measurement": "Insulin+ cell count", "setting": "[9]; GABA 3 months", "value": "x 3.49 ± 0.11"}, {"measurement": "Islet count", "setting": "[9]; GABA 3 months", "value": "x 1.80 ± 0.03"}, {"measurement": "Islet size", "setting": "[9]; GABA 3 months", "value": "x 3.49 ± 0.11"}, {"measurement": "Location of BrdU+ proliferating cells", "setting": "[10]; GABA-treated WT pancreata, BrdU for 10 days", "value": "predominantly located in the ductal lining and in the ductal epithelium"}, {"measurement": "β-cell proliferation", "setting": "[10]; GABA-treated mice, relative to the size of the islets, data not shown", "value": "lack of a significant increase in β-cell proliferation"}, {"measurement": "Blood glucose levels", "setting": "[11]", "value": "decrease blood glucose levels"}]}
